{"source": "patent US20200241005A1", "about": "“COMPOSITIONS AND METHODS FOR THE DIAGNOSIS AND TREATMENT OF DISEASES OF THE LIVER” (Viscient Biosciences, Inc., priority 2019, published 2020)", "origin": "cited, not measured here", "key": {"[1]": {"system": "SLC1A1", "conditions": "SLC1A1 vs SLC1A2 and SLC1A3"}, "[2]": {"system": "SLC1A1", "conditions": "astroglial cells; unknown mechanism"}}}
{"smiles": "N[C@H](C(=O)O)[C@H](Cc1ccccc1)C(=O)O", "note": "[L-beta-benzyl-aspartate]", "values": [{"measurement": "preference for SLC1A1 over its most related homologs SLC1A2 and SLC1A3", "setting": "[1]", "value": 10, "unit": "fold"}]}
{"smiles": "Nc1nc2ccc(OC(F)(F)F)cc2s1", "note": "[Riluzole]", "values": [{"measurement": "effect on SLC1A1 expression", "setting": "[2]", "value": "enhances SLC1A1 expression"}]}
